Assay results: the NIST ThermoML archive (doi:10.1016/j.jct.2004.06.009)
± gives the expanded uncertainty stated by the source.

Assay: molar heat capacity at constant pressure
Conditions: 101.33 kPa, Crystal

CCC12CC3CC(CC(C3)C1)C2 [1-ethyladamantane]
Conditions	molar heat capacity at constant pressure [J/K/mol]
8.03 K	1.395 ± 0.087
8.87 K	1.961 ± 0.1
9.72 K	2.621 ± 0.12
10.57 K	3.39 ± 0.14
11.44 K	4.278 ± 0.17
12.32 K	5.225 ± 0.19
13.21 K	6.255 ± 0.22
14.1 K	7.376 ± 0.24
14.99 K	8.556 ± 0.27
15.9 K	9.727 ± 0.29
16.8 K	10.96 ± 0.32
17.71 K	12.22 ± 0.34
18.62 K	13.48 ± 0.36
19.54 K	14.72 ± 0.38
20.54 K	16.13 ± 0.4
21.56 K	17.52 ± 0.41
22.59 K	18.89 ± 0.42
23.61 K	20.32 ± 0.43
24.63 K	21.67 ± 0.44
26.68 K	24.2 ± 0.44
27.71 K	25.4 ± 0.44
28.74 K	26.62 ± 0.43
29.76 K	27.84 ± 0.42
30.79 K	29.12 ± 0.39
32.85 K	31.29 ± 0.41
33.87 K	32.44 ± 0.42
34.9 K	33.5 ± 0.43
35.93 K	34.39 ± 0.44
37.98 K	36.32 ± 0.45
39.01 K	37.21 ± 0.46
40.03 K	38.15 ± 0.47
41.06 K	39 ± 0.47
42.08 K	39.94 ± 0.48
43.1 K	40.64 ± 0.48
44.12 K	41.41 ± 0.49
45.14 K	42.16 ± 0.5
46.16 K	42.91 ± 0.5
47.18 K	43.59 ± 0.51
48.2 K	44.12 ± 0.51
49.22 K	44.8 ± 0.52
50.23 K	45.53 ± 0.52
51.25 K	46 ± 0.53
52.26 K	46.77 ± 0.53
53.27 K	47.66 ± 0.54
54.29 K	48.36 ± 0.55
55.3 K	49.16 ± 0.55
56.32 K	50.02 ± 0.56
57.33 K	50.66 ± 0.56
60.8 K	53.31 ± 0.59
62.77 K	54.44 ± 0.6
64.71 K	55.94 ± 0.61
65.75 K	56.4 ± 0.61
66.79 K	57.48 ± 0.62
67.84 K	57.62 ± 0.62
68.88 K	58.33 ± 0.63
69.92 K	59.01 ± 0.63
70.96 K	59.56 ± 0.64
72 K	60.08 ± 0.64
73.04 K	60.85 ± 0.65
74.08 K	61.29 ± 0.65
75.11 K	62.33 ± 0.66
76.15 K	62.98 ± 0.66
77.19 K	63.42 ± 0.67
78.22 K	64.33 ± 0.68
79.25 K	64.56 ± 0.68
80.28 K	65.4 ± 0.68
81.31 K	66.12 ± 0.69
81.85 K	65.93 ± 0.69
82.34 K	66.67 ± 0.69
82.88 K	66.84 ± 0.69
83.37 K	67.23 ± 0.7
83.91 K	67.62 ± 0.7
84.26 K	67.63 ± 0.7
84.94 K	68.15 ± 0.7
85.59 K	68.6 ± 0.71
85.97 K	68.8 ± 0.71
86.66 K	69.39 ± 0.71
87 K	69.66 ± 0.72
87.74 K	70.12 ± 0.72
88.82 K	70.92 ± 0.73
89.89 K	71.56 ± 0.73
90.96 K	72.22 ± 1.1
92.04 K	72.9 ± 1.1
93.11 K	73.4 ± 1.1
94.18 K	73.82 ± 1.1
95.25 K	75.04 ± 1.1
96.32 K	75.51 ± 1.1
97.39 K	76.24 ± 1.1
98.46 K	76.81 ± 1.1
99.54 K	77.83 ± 1.1
100.87 K	78.38 ± 1.1
102.46 K	79.35 ± 1.1
104.05 K	80.35 ± 1.1
105.64 K	81.43 ± 1.1
107.23 K	82.56 ± 1.1
108.82 K	83.52 ± 1.1
110.4 K	84.71 ± 1.1
111.99 K	85.66 ± 1.1
113.57 K	86.76 ± 1.1
115.16 K	87.63 ± 1.2
116.73 K	88.67 ± 1.2
118.31 K	89.74 ± 1.2
119.89 K	90.68 ± 1.2
121.47 K	91.9 ± 1.2
123.04 K	92.76 ± 1.2
124.62 K	93.94 ± 1.2
126.2 K	94.87 ± 1.2
127.77 K	96.09 ± 1.2
129.34 K	97.09 ± 1.2
130.92 K	97.98 ± 1.2
132.49 K	99.07 ± 1.2
134.06 K	100.25 ± 1.2
135.63 K	101.16 ± 1.2
137.2 K	102.25 ± 1.2
138.77 K	103.19 ± 1.2
140.34 K	104.1 ± 1.2
141.9 K	105.44 ± 1.2
143.46 K	106.52 ± 1.2
145.03 K	107.47 ± 1.2
146.59 K	108.5 ± 1.2
148.16 K	109.54 ± 1.2
149.72 K	110.66 ± 1.2
151.28 K	111.92 ± 1.2
152.83 K	112.8 ± 1.2
154.39 K	113.97 ± 1.3
155.94 K	114.98 ± 1.3
157.5 K	116.23 ± 1.3
159.05 K	117.17 ± 1.3
160.6 K	118.16 ± 1.3
162.16 K	119.21 ± 1.3
163.71 K	120.38 ± 1.3
165.26 K	121.36 ± 1.3
166.82 K	122.47 ± 1.3
168.37 K	123.67 ± 1.3
169.92 K	124.78 ± 1.3
171.47 K	125.84 ± 1.3
173.02 K	126.95 ± 1.3
174.57 K	128.01 ± 1.3
